Measured values as given in EP0572271B1, “Acyl lactylates as antimicrobial actives” (UNILEVER PLC, priority 1992, dated 1993).

What was measured:
Pseudomonas cepacia = assay: Challenge test with repeated bacterial inoculation of preserved compositions; type: cell-based
Experimental: (§1) This test involved incubating under standard conditions test compositions which have been inoculated with a selected bacterium, yeast or a mixture of moulds. […] Accordingly, the higher the number of "challenges", the better is the preservative substance in preventing or at least delaying microbial spoilage.
(§2) The microorganisms selected for this test were: • i) Pseudomonas cepacia - a gram-negative bacterium, • ii ) Aspergillus niger & Penicillium notatum, - a mixture of moulds.
For the bacterium the method of testing was as follows: • i) Introduce aseptically 99ml of test composition into a 250ml flask and add 1ml of inoculum of one of the test organisms (see above), to provide a dilution of 10^6 cells/ml in the composition. • ii) mix and incubate at 28°C for 24 hours. • iii) remove 1ml of incubated composition from the flask and add to it as diluent 9ml of an aqueous solution containing 0.1% by weight peptone and 2% by weight Tween 80, and mix thoroughly. • iv) place 1ml of diluted sample into a petri dish and add warm, molten agar (40°C) and mix to distribute culture uniformly and allow to set. • v) incubate plates for 3 days at 28°C and then count colonies and note log reduction of count (due to the presence of the preservative in the original culture composition).
The inoculation of the organisms originally introduced into each composition is then repeated at 24 hour intervals, following removal of the first total viable count sample, the plating out and counting procedure being repeated on each occasion. The test is terminated when the samples show a contamination level greater than 10^2 counts per ml on 2 consecutive days. This point is regarded as the failure point for the composition under test.
The greater the number of inoculations of contaminant organisms before this level of contamination is established in the composition, the better the preservative system.

[1] = test system: Aspergillus niger & Penicillium notatum; assay: Mould challenge test: mould spore suspension inoculated into preserved compositions; type: cell-based; conditions: Example 2: oil-in-water emulsion, pH 5.5, material usually 1.0 wt%; for Mould challenge 1%: 1% by volume spore suspension; for Mould challenge 10%: 10% by volume spore suspension
Experimental: as §1, §2
The above procedure applies to the inoculation of the bacterium. For testing with the mixed culture of moulds this procedure was varied slightly, as follows:
Two samples of each test composition (9.9ml and 9ml) were transferred to sterile flasks and 0.1ml or 1ml, (i.e. 1% or 10% by volume) of a mould spore suspension (approximately 10^8 spores per ml) was introduced into the respective samples and thoroughly mixed. The inoculated samples were incubated at 28°C for up to 28 days with 1ml samples being aseptically removed for the total viable count as outlines above using Sabourand's dextrose agar after 1, 7, and 28 days.
A composition is classed as "low risk" if mould spores are eliminated in 1 to 2 days. "Medium risk" compositions take 7 to 14 days to eliminate the spores and "high risk" compositions still have surviving mould spores after 14 days incubation.

[2] = test system: several types of bacteria; conditions: statement in words on prior art US patent 3,275,503; cited from earlier work
aspergillus niger = conditions: statement in words on prior art US patent 3,275,503; cited from earlier work
[3] = Example 2: oil-in-water emulsion, pH 5.5, material usually 1.0 wt%
[4] = Example 3: shampoo formulation, pH 6.0, material added 1 wt%

Row | Molecule | No of inoculations to failure (Bacteria) (Pseudomonas cepacia; [3]) | Mould challenge 1% [1] | Mould challenge 10% [1] | No of inoculations to failure (Bacteria) (Pseudomonas cepacia; [4]) | effectiveness against several types of bacteria [2] | efficacy to inhibit the growth of moulds, like aspergillus niger (aspergillus niger)
1 | CC(C)=CCCC(C)=CCCC(C)=CCO [Farnesol] | 1 | ++++ | ++++ | – | – | –
2 | CCCCCC(=O)OC(C)C(=O)O (stereo not drawn) [Hexanoyl lactylate] | >21 | + | + | >21 | – | –
3 | CCCCCCCCCCCC(=O)O [Lauric acid] | 1 | ++++ | ++++ | 1 | – | –
4 | CCCCCCCCCCCC(=O)OCC(O)CO (stereo not drawn) [Monolaurin] | 1 | ++++ | ++++ | 1 | – | –
5 | CCCCCCCCCC(=O)OC(C)C(=O)OC(C)C(=O)[O-].CCCCCCCCCC(=O)OC(C)C(=O)OC(C)C(=O)[O-].[Ca+2] (stereo not drawn) [calcium capryl-2 lactylate] | – | – | – | – | very effective | leaves much to be desired
6 | Octanoyl lactylate | 20 | + | ++++ | 2 | – | –
